The subject of this assay is CD2F1 mice, L1210 leukemia ip, survival T/C. In words: NCI In Vivo Anticancer Drug Screen. Data for tumor model L1210 Leukemia (intraperitoneal) in CD2F1 (CDF1) mice. The note with it: higher = longer survival. The method, boiled down: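 Each value reflects a quotient of treated over vehicle control outcomes in mice with a transplanted tumor.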
The mark [1] stands for this setting: endpoint: mean survival time, dose: 25.0 mg/kg/injection, schedule: Q04DX003 (ip), vehicle: saline with Tween-80.
[2] abbreviates: endpoint: mean survival time, dose: 100.0 mg/kg/injection, schedule: Q04DX003 (ip), vehicle: saline with Tween-80.
The mark [3] stands for this setting: endpoint: mean survival time, dose: 200.0 mg/kg/injection, schedule: Q04DX003 (ip), vehicle: saline with Tween-80.
Where [4] appears, read: endpoint: mean survival time, dose: 400.0 mg/kg/injection, schedule: Q04DX003 (ip), vehicle: saline with Tween-80.
[5] abbreviates: endpoint: mean survival time, dose: 400.0 mg/kg/injection, schedule: Q04DX003 (ip), vehicle: other.
Where [6] appears, read: endpoint: mean survival time, dose: 100.0 mg/kg/injection, schedule: Q01DX009 (ip), vehicle: saline with Tween-80.
Setting [7] is: endpoint: mean survival time, dose: 200.0 mg/kg/injection, schedule: Q01DX009 (ip), vehicle: saline with Tween-80.
[8] abbreviates: endpoint: mean survival time, dose: 400.0 mg/kg/injection, schedule: Q01DX009 (ip), vehicle: saline with Tween-80.
Where [9] appears, read: endpoint: mean survival time, dose: 100.0 mg/kg/injection, schedule: Q04DX002 (ip), vehicle: saline with Tween-80.
[10] abbreviates: endpoint: mean survival time, dose: 200.0 mg/kg/injection, schedule: Q04DX002 (ip), vehicle: saline with Tween-80.
Setting [11] is: endpoint: mean survival time, dose: 50.0 mg/kg/injection, schedule: Q04DX003 (ip), vehicle: saline with Tween-80.

Several values for one entry are separate records, joined by “and”; a condition that tells them apart may be missing. Identical values can stand only once. Inconclusive results and toxic doses are left out.

`CCCCCCCCCCCC(=O)NC1CC(O[C@H]2C[C@](O)(C(=O)CO)Cc3c(O)c4c(c(O)c32)C(=O)c2c(OC)cccc2C4=O)OC(C)C1O` (stereo not given in full): the T/C runs as follows: (endpoint: mean survival time, dose: 1.5 mg/kg/injection, schedule: Q01DX009 (ip), vehicle: saline with Tween-80) 108 % of control; (endpoint: mean survival time, dose: 1.5 mg/kg/injection, schedule: Q01DX009 (ip), vehicle: saline) 104 % of control; (endpoint: mean survival time, dose: 3.0 mg/kg/injection, schedule: Q01DX009 (ip), vehicle: saline with Tween-80) 98 % of control; (endpoint: mean survival time, dose: 3.0 mg/kg/injection, schedule: Q01DX009 (ip), vehicle: saline) 113 % of control; (endpoint: mean survival time, dose: 6.0 mg/kg/injection, schedule: Q01DX009 (ip), vehicle: saline with Tween-80) 105 % of control; (endpoint: mean survival time, dose: 6.0 mg/kg/injection, schedule: Q01DX009 (ip), vehicle: saline) 113 % of control. For the same compound, the T/C reads like this: (endpoint: mean survival time, dose: 6.25 mg/kg/injection, schedule: Q01DX009 (ip), vehicle: distilled water + Tween-80) 105 % of control; (endpoint: mean survival time, dose: 12.0 mg/kg/injection, schedule: Q01DX009 (ip), vehicle: saline with Tween-80) 107 % of control; (endpoint: mean survival time, dose: 12.5 mg/kg/injection, schedule: Q01DX009 (ip), vehicle: distilled water + Tween-80) 105 % of control; (endpoint: mean survival time, dose: 24.0 mg/kg/injection, schedule: Q01DX009 (ip), vehicle: saline with Tween-80) 112 % of control; (endpoint: mean survival time, dose: 24.0 mg/kg/injection, schedule: Q01DX009 (ip), vehicle: saline) 116 % of control; (endpoint: mean survival time, dose: 25.0 mg/kg/injection, schedule: Q01DX009 (ip), vehicle: distilled water + Tween-80) 112 % of control. Also, the T/C by setting is: (endpoint: mean survival time, dose: 48.0 mg/kg/injection, schedule: Q01DX009 (ip), vehicle: saline with Tween-80) 97 % of control; (endpoint: mean survival time, dose: 50.0 mg/kg/injection, schedule: Q01DX009 (ip), vehicle: distilled water + Tween-80) 116 % of control.

With `Nc1nccc(N2CCCCC2)n1`, the T/C reads like this: (endpoint: mean survival time, dose: 6.25 mg/kg/injection, schedule: Q04DX003 (ip), vehicle: saline with Tween-80) 100 % of control; (endpoint: mean survival time, dose: 12.5 mg/kg/injection, schedule: Q04DX003 (ip), vehicle: saline with Tween-80) 100 % of control; under setting [1], 97 % of control.

Take `c1ccc([Si]c2ccccc2)cc1`: the T/C was 104 % of control under setting [2], 102 % of control under setting [3] and 102 % of control under setting [4].

As to `COc1ccc(/C=C(/c2ccccc2)[Si](C)(C)C)cc1`, the T/C reads like this: (endpoint: mean survival time, dose: 100.0 mg/kg/injection, schedule: Q04DX003 (ip), vehicle: other) 91 % of control; (endpoint: mean survival time, dose: 200.0 mg/kg/injection, schedule: Q04DX003 (ip), vehicle: other) 96 % of control; under setting [5], 94 % of control.

Turning to `C=C(CC(=O)O)C(=O)O` (tested in a mixture with another compound), the T/C was 108 % of control (endpoint: mean survival time, dose: 50.0 mg/kg/injection, schedule: Q01DX009 (ip), vehicle: saline with Tween-80); 120 % of control under setting [6]; 102 % of control under setting [2]; 105 % of control under setting [7]; 102 % of control under setting [3].

For `COc1cc(C2CC(C)(O)Oc3cc4c(cc32)OCO4)cc(OC)c1OC` (stereo not given), the T/C reads like this: (endpoint: median survival time, dose: 25.0 mg/kg/injection, schedule: Q01DX005 (ip), vehicle: saline with Tween-80) 106 % of control; (endpoint: median survival time, dose: 50.0 mg/kg/injection, schedule: Q01DX005 (ip), vehicle: saline with Tween-80) 114 % of control; (endpoint: median survival time, dose: 86.0 mg/kg/injection, schedule: Q01DX005 (ip), vehicle: saline with Tween-80) 119 % of control; (endpoint: median survival time, dose: 100.0 mg/kg/injection, schedule: Q01DX005 (ip), vehicle: saline with Tween-80) 110 % of control; (endpoint: median survival time, dose: 144.0 mg/kg/injection, schedule: Q01DX005 (ip), vehicle: saline with Tween-80) 160 % of control; (endpoint: median survival time, dose: 200.0 mg/kg/injection, schedule: Q01DX005 (ip), vehicle: saline with Tween-80) 102 % of control. Also, the T/C (endpoint: median survival time, dose: 240.0 mg/kg/injection, schedule: Q01DX005 (ip), vehicle: saline with Tween-80) is 102 % of control.

Turning to `CCC(NC(=O)OCc1ccccc1)C(=O)O` (stereo not given), the T/C is, setting by setting: under setting [6], 88 % of control; under setting [7], 90 % of control; under setting [8], 90 % of control.

Regarding `CCCCCCCCCCCCCCCC1CCCC(C)N1` (stereo not given), the T/C reads like this: (endpoint: mean survival time, dose: 50.0 mg/kg/injection, schedule: Q04DX002 (ip), vehicle: saline with Tween-80) 90 % of control and 105 % of control; under setting [9], 87 % of control; under setting [10], 87 % of control.

On to `CC(=O)C(C)OS(C)(=O)=O` (stereo not given), for which the T/C is 108 % of control under setting [1], 108 % of control under setting [11], 109 % of control under setting [2] and 120 % of control under setting [3].

In the case of `CN(C)c1ccc(/C=C2/CCCC/C2=N/O)cc1`, the T/C is, setting by setting: (endpoint: mean survival time, dose: 100.0 mg/kg/injection, schedule: Q04DX003 (ip), vehicle: Klucel (hydroxypropylcellulose) (HPC)) 102 % of control; (endpoint: mean survival time, dose: 200.0 mg/kg/injection, schedule: Q04DX003 (ip), vehicle: Klucel (hydroxypropylcellulose) (HPC)) 94 % of control; (endpoint: mean survival time, dose: 400.0 mg/kg/injection, schedule: Q04DX003 (ip), vehicle: Klucel (hydroxypropylcellulose) (HPC)) 98 % of control.

Consider `Cc1ccc2[nH]c3c(c2c1)CSCC3`, for which the T/C is 104 % of control under setting [6], 102 % of control under setting [7] and 102 % of control under setting [8].

Consider `Cc1ccc(S(=O)(=O)NOCCCCONS(=O)(=O)c2ccc(C)cc2)cc1`, for which the T/C is, setting by setting: under setting [1], 91 % of control; under setting [11], 89 % of control; under setting [2], 89 % of control and 97 % of control.

With `CN1CSC(=S)N(Cc2ccccc2)C1`, the T/C is 93 % of control under setting [6], 93 % of control under setting [7] and 93 % of control under setting [8].

Take `CCC(C)OC(=O)Nc1ccccc1` (stereo not given): the T/C under setting [6] was 96 % of control; the T/C under setting [2] was 94 % of control; the T/C under setting [7] was 98 % of control; the T/C under setting [3] is 94 % of control; the T/C under setting [8] was 98 % of control; the T/C under setting [4] was 94 % of control.

As for `CSc1nc(N)n2nccc2n1`, the T/C by setting is: (endpoint: median survival time, dose: 50.0 mg/kg/injection, schedule: Q01DX005 (ip), vehicle: saline) 102 % of control; (endpoint: median survival time, dose: 100.0 mg/kg/injection, schedule: Q01DX005 (ip), vehicle: saline) 95 % of control; (endpoint: median survival time, dose: 200.0 mg/kg/injection, schedule: Q01DX005 (ip), vehicle: saline) 95 % of control.

Take `CCOC(=O)c1ccc(NC(=O)N2CCC(CCCc3ccccc3)CC2)cc1`: the T/C is 100 % of control (endpoint: mean survival time, dose: 50.0 mg/kg/injection, schedule: Q01DX001 (ip), vehicle: saline with Tween-80); 88 % of control and 98 % of control (endpoint: mean survival time, dose: 100.0 mg/kg/injection, schedule: Q01DX001 (ip), vehicle: saline with Tween-80); 87 % of control and 91 % of control under setting [6]; 91 % of control and 95 % of control under setting [9]; 98 % of control under setting [2]; 87 % of control and 93 % of control under setting [7]. The T/C reads like this: under setting [10], 91 % of control; under setting [3], 87 % of control; (endpoint: mean survival time, dose: 400.0 mg/kg/injection, schedule: Q01DX001 (ip), vehicle: saline with Tween-80) 88 % of control and 94 % of control; under setting [8], 93 % of control; (endpoint: mean survival time, dose: 400.0 mg/kg/injection, schedule: Q04DX002 (ip), vehicle: saline with Tween-80) 90 % of control; under setting [4], 90 % of control.

On to `CCCCCCCCc1ccc(O)c(Cl)c1`, for which the T/C is, setting by setting: under setting [2], 94 % of control; under setting [3], 91 % of control; under setting [4], 94 % of control.

Take `c1ccc(-c2nn[nH]n2)nc1`: the T/C (endpoint: mean survival time, dose: 100.0 mg/kg/injection, schedule: Q01DX001 (ip), vehicle: saline) is 101 % of control; the T/C (endpoint: mean survival time, dose: 100.0 mg/kg/injection, schedule: Q04DX003 (ip), vehicle: saline) is 90 % of control and 104 % of control; the T/C (endpoint: mean survival time, dose: 200.0 mg/kg/injection, schedule: Q01DX001 (ip), vehicle: saline) was 101 % of control; the T/C (endpoint: mean survival time, dose: 200.0 mg/kg/injection, schedule: Q04DX003 (ip), vehicle: saline) is 102 % of control and 104 % of control; the T/C (endpoint: mean survival time, dose: 400.0 mg/kg/injection, schedule: Q04DX003 (ip), vehicle: saline) is 94 % of control and 108 % of control.

For the compound `Cc1nc(Cl)cc(Cl)c1C`, the T/C (endpoint: mean survival time, dose: 178.0 mg/kg/injection, schedule: Q04DX003 (ip), vehicle: other) is 100 % of control; the T/C (endpoint: mean survival time, dose: 266.0 mg/kg/injection, schedule: Q04DX003 (ip), vehicle: other) is 100 % of control; the T/C under setting [5] was 95 % of control; the T/C (endpoint: mean survival time, dose: 600.0 mg/kg/injection, schedule: Q04DX003 (ip), vehicle: other) was 105 % of control.

The values are drawn from PubChem BioAssay AID256 (DTP/NCI, 2004).
